Reference: the supplement of paper PMC13380429

Legend:
Details in all cases: 72 h
[1] = test system: Caco-2; experiment: cell viability relative to DMSO; higher = less toxic
[2] = test system: Calu-3; experiment: as above
[3] = test system: HepG2; experiment: as above
[4] = test system: U2OS; experiment: as above
[5] = test system: Vero E6; experiment: as above
[6] = test system: Caco-2; experiment: relative viability EC50 (midpoint between 100% and the lowest measured viability); higher = less toxic
[7] = test system: Calu-3; experiment: as above
[8] = test system: HepG2; experiment: as above
[9] = test system: U2OS; experiment: as above
[10] = test system: Vero E6; experiment: as above
[11] = test system: Caco-2; experiment: drug sensitivity score (DSS) for viability; higher = more toxic; extreme values may be limits of the assay
[12] = test system: Calu-3; experiment: as above
[13] = test system: HepG2; experiment: as above
[14] = test system: U2OS; experiment: as above
[15] = test system: Vero E6; experiment: as above

Structure (SMILES)	cell viability ([1]; 1 nM) [%]	cell viability ([1]; 10 nM) [%]	cell viability ([1]; 100 nM) [%]	cell viability ([1]; 1000 nM) [%]	cell viability ([1]; 10000 nM) [%]	cell viability ([2]; 1 nM) [%]	cell viability ([2]; 10 nM) [%]	cell viability ([2]; 100 nM) [%]	cell viability ([2]; 1000 nM) [%]	cell viability ([2]; 10000 nM) [%]	cell viability ([3]; 1 nM) [%]	cell viability ([3]; 10 nM) [%]	cell viability ([3]; 100 nM) [%]	cell viability ([3]; 1000 nM) [%]	cell viability ([3]; 10000 nM) [%]	cell viability ([4]; 1 nM) [%]	cell viability ([4]; 10 nM) [%]	cell viability ([4]; 100 nM) [%]	cell viability ([4]; 1000 nM) [%]	cell viability ([4]; 10000 nM) [%]	cell viability ([5]; 1 nM) [%]	cell viability ([5]; 10 nM) [%]	cell viability ([5]; 100 nM) [%]	cell viability ([5]; 1000 nM) [%]	cell viability ([5]; 10000 nM) [%]	relative viability EC50 [6] [µM]	relative viability EC50 [7] [µM]	relative viability EC50 [8] [µM]	relative viability EC50 [9] [µM]	relative viability EC50 [10] [µM]	drug sensitivity score [11]	drug sensitivity score [12]	drug sensitivity score [13]	drug sensitivity score [14]	drug sensitivity score [15]
CCOC(=O)c1c(CSc2ccccc2)n(C)c2cc(Br)c(O)c(CN(C)C)c12 [arbidol]	94.9	88.1	94.4	96.7	88.2	94.5	96.7	96	96.8	81.6	96	104	108	104	97.2	98.3	92.8	96.8	92.4	93.8	92.9	96.6	92	104	101	> 10	> 10	> 10	> 10	> 10	0	0.9	0	0	0
C[C@@H]1CC[C@H]2[C@@H](C)C(=O)O[C@@H]3O[C@@]4(C)CC[C@@H]1[C@]32OO4 [artemisinin]	95.6	104	102	91.4	81.6	101	102	99.5	95.4	97.5	97.3	93.1	88.7	86.1	77.1	96.9	99.8	94.6	91.1	78.6	97.5	95.4	98	96.9	100	> 10	> 10	> 10	> 10	> 10	1.3	0	2.5	1.1	0
C=C[C@@H]1C[C@]1(NC(=O)[C@@H]1C[C@@H](Oc2ncc(OC)c3ccc(Cl)cc23)CN1C(=O)[C@@H](NC(=O)OC(C)(C)C)C(C)(C)C)C(=O)NS(=O)(=O)C1CC1 [asunaprevir]	98.7	96.5	90	104	85.8	104	101	104	101	95.9	104	97.8	98.8	89.8	86.1	98.4	101	96.7	96.8	97.8	102	98.4	93.5	101	91	> 10	> 10	> 10	> 10	> 10	0.1	0	0.6	0	0
C=C[C@@](C)(/C=C/c1ccc(O)cc1)CCC=C(C)C [bakuchiol]	105	87.4	109	96.8	97.6	94.8	94.9	95.7	96.1	98.2	107	115	87.9	93	81.5	96.1	101	98	92.8	97.6	103	110	98.7	97.6	98.5	> 10	> 10	> 10	> 10	> 10	0	0	0.9	0	0
O=C(O)COc1nn(Cc2ccccc2)c2ccccc12 [bendazac]	109	96.3	103	97.6	102	86.6	83.3	104	103	104	91.7	104	97.3	94.1	98.7	91.7	95.3	98.9	92.3	96.1	101	101	99	103	98.8	> 10	> 10	> 10	> 10	> 10	0	0	0	0	0
CN(C)CCCOc1nn(Cc2ccccc2)c2ccccc12 [benzydamine]	86.2	94.3	73.1	80.3	87.1	98.8	91.7	95.6	101	90.5	97.7	102	95.1	91.4	89.8	101	96.5	100	95.6	91.2	98.7	105	98.3	96.9	85.5	> 10	> 10	> 10	> 10	> 10	0	0	0	0	0.5
COc1cc(OC)c(/C=C/S(=O)(=O)Cc2ccc(OC)c(OP(=O)(O)O)c2)c(OC)c1 [briciclib]	106	103	45.1	42	42.9	101	108	94.9	65.2	41	113	108	56.1	36	38.7	102	104	73.4	23.7	18.2	95.9	92.2	23.6	21.2	26.9	0.0392	0.75	0.0738	0.161	0.0246	17.5	7.4	17	17.5	25.5
